For test [1], the system named is mouse intestinal organoids. Nature of the test: cystic organoid percentage, organoids in conditioned media (SCM/QCM) with or without inhibitors or antibodies. Type of test: cell-based. The note with it: for percentage of cystic organoids: Fig. 3c, dialyzed, individual mice, n = 3; for cystic organoid percentage: DMSO = 0; for effect on cystic organoid phenotype: SCM-exposed organoids. The method, then: Twenty-four hours before collecting conditioned media (CM), MEFs were washed with serum-free DMEM twice, and serum-free DMEM was added. After 24 h in serum-free DMEM, this CM was collected, filtered using Steriflip filters (Millipore, #SE1M179M6) to remove cell debris, and concentrated using centrifugal filter units (Amicon ultra-15 centricon; Millipore, # UFC900324). […] CM was filtered and dialyzed for 24–48 h to remove the inhibitors before concentration.
(§1) The jejunum part of the small intestine was removed, flushed with PBS, opened longitudinally, then cut into 0.5 cm pieces. The collected tissues were washed with ice cold PBS multiple times by vortexing and incubated in PBS containing 2.5 mM EDTA for 5 min at 37 °C. After gentle shaking and aspiration, tissues were incubated in PBS containing 5 mM EDTA for 7 min at 37 °C. Tissues were then washed with PBS to remove EDTA and vigorously shaken to release crypts. The released crypts were passed through 70 μm strainers, washed with PBS, and pelleted by centrifugation at 200 × g.
(§2) 3-4 biological replicates of organoids from different mice were used per condition. Organoids were cultured in the indicated media, inhibitors, antibodies and/or recombinant proteins for 5 d and fixed in 4% formaldehyde in PBS. Organoids were imaged with a 4× Plan Fluor objective (NA: 0.13, Nikon) on a Nikon Ti-E inverted microscope equipped with a Neo scMOS camera (Andor, Oxford Instruments), a linear encoded automated stage (Applied Scientific Instrumentation), all run by NIS Elements software (Nikon). Organoids were imaged in brightfield and images covering the whole well were stitched and focused into one image projection with an extended depth of focus module (EDF; Nikon). One hundred to 200 organoids per replicate per condition were counted and used for quantification. The number of budding organoids in each condition was normalized by the number of budding organoids in untreated or DMSO treated controls to calculate cystic organoid percentage:1 Cysticorganoidpercentage=100×1−Numberofbuddingorganoidsfromexperiment/Numberofbuddingorganoidsfromcontrol

Test [2] concerns mouse intestinal organoids. Put plainly: inhibition of Wnt5a-induced cystic organoids. Type of test: cell-based. Details: key to cystic organoids (sheet SF.5b): % cystic = 100×(1 − budding organoids treated/control). Conditions: relative to Untreated = 0. The method, then:
as §1, with “g. Resuspended crypts were mixed with Matrigel (Corning, #356231; Lot#8218007) and pipetted into culture plates. After mixture of crypts and Matrigel solidified, IntestiCult Organoid Growth Medium (Stem Cell Technologies, #06005; Lots #1000021927, #1000034230, #1000037372) was added. Seven days after seeding, organoids were resuspended in dissociation buffer (Gentle Cell Dissociation Reagent; Stem Cell Technologies, #07174), dissociated by pipetting, and seeded for experiments.” for “g.”
as §2

“And” between values parts separate entries of the source, which are not always exact repeats. Identical values can stand only once.

As to `CNC(=O)[C@H](Cc1c[nH]c2ccccc12)NC(=O)[C@@H](CC(=O)NO)CC(C)C` [GM6001], the “percentage of cystic organoids” value in test [1] (SCM from MEFs exposed to GM6001 (20 uM, 24 h)) was 29.2391% and 41.0714% and 39.5302%.

As to `O=C(CSc1nc2c(c(=O)n1-c1ccccc1)SCC2)Nc1ccc(-c2ccccc2)cn1` [IWP-L6], the cystic organoid percentage in test [1] (SF.3d, SCM + inhibitor, replicate 1) is recorded as 46.6221; in test [1] (SF.3d, SCM + inhibitor, replicate 2), 58.2456; in test [1] (SF.3d, SCM + inhibitor, replicate 3), 31.9347.

With `CN([C@@H](Cc1ccc(OS(=O)(=O)c2cccc3cnccc23)cc1)C(=O)N1CCN(c2ccccc2)CC1)S(=O)(=O)c1cccc2cnccc12` [KN62], the cystic organoid percentage is reported as 0.2849 in test [1] (Fig.5l, 10uM, no conditioned medium, replicate 1); -0.03848 in test [1] (Fig.5l, 10uM, no conditioned medium, replicate 2); 4.343 in test [1] (Fig.5l, 10uM, no conditioned medium, replicate 3); -7.21 in test [1] (Fig.5l, QCM + 10uM, replicate 1); -3.018 in test [1] (Fig.5l, QCM + 10uM, replicate 2); -12.8255 in test [1] (Fig.5l, QCM + 10uM, replicate 3). Further, the cystic organoid percentage in test [1] (Fig.5l, SCM + 10um, replicate 1) was -3.501; in test [1] (Fig.5l, SCM + 10um, replicate 2), 1.186; in test [1] (Fig.5l, SCM + 10um, replicate 3), 0.111.

On to `O=C(O)c1ccc2c3c1cccc3c(=O)n1c3ccccc3nc21` [STO609], for which the cystic organoid percentage in test [1] (Fig.5l, 5uM, no conditioned medium, replicate 1) is given as -8.274; in test [1] (Fig.5l, 5uM, no conditioned medium, replicate 2), -5.955; in test [1] (Fig.5l, 5uM, no conditioned medium, replicate 3), -8.683; in test [1] (Fig.5l, QCM + 5uM, replicate 1) it was -3.426; in test [1] (Fig.5l, QCM + 5uM, replicate 2), 1.872; in test [1] (Fig.5l, QCM + 5uM, replicate 3) it was -3.616. Also, the cystic organoid percentage came to 16.8399 in test [1] (Fig.5l, SCM + 5um, replicate 1); 8.659 in test [1] (Fig.5l, SCM + 5um, replicate 2); 6.694 in test [1] (Fig.5l, SCM + 5um, replicate 3).

`CC(C)C[C@H](CC(=O)NO)C(=O)N[C@@H](Cc1ccc2ccccc2c1)C(=O)N[C@@H](C)C(=O)NCCN` [TAPI-1]: the “percentage of cystic organoids” value in test [1] (SCM from MEFs exposed to TAPI-1 (50 uM, 24 h)) was 21.6102% and 25.641% and 30.6707%.

For the compound `O=C(CCl)c1ccccc1Nc1cccc(C(F)(F)F)c1` [TED347], the cystic organoid percentage is -4.167 in test [1] (Fig.7e, 2 uM, no conditioned medium, replicate 1); 2.041 in test [1] (Fig.7e, 2 uM, no conditioned medium, replicate 2); 3.815 in test [1] (Fig.7e, 2 uM, no conditioned medium, replicate 3); 3.646 in test [1] (Fig.7e, QCM + 2 uM, replicate 1); 2.9703 in test [1] (Fig.7e, QCM + 2 uM, replicate 2); -0.09671 in test [1] (Fig.7e, QCM + 2 uM, replicate 3). For the same compound, the cystic organoid percentage is 13.1944 in test [1] (Fig.7e, SCM + 2 uM, replicate 1); 21.2963 in test [1] (Fig.7e, SCM + 2 uM, replicate 2); 18.1818 in test [1] (Fig.7e, SCM + 2 uM, replicate 3). The “effect on cystic organoid phenotype” value in test [1] is on record as “reduced the percentage of cystic organoids”.

For the compound `CN1CCN(CCCN2c3ccccc3Sc3ccc(C(F)(F)F)cc32)CC1` [Trifluoperazine A], the “cystic organoids (sheet SF.5b)” value in test [2] (100 nM Trifluoperazine A, no Wnt5a, replicate 1) is on record as 1.842; in test [2] (100 nM Trifluoperazine A, no Wnt5a, replicate 2), -0.6895; in test [2] (100 nM Trifluoperazine A, no Wnt5a, replicate 3) it was -1.481; in test [2] (100 nM Trifluoperazine A, no Wnt5a, replicate 4), 3.596; in test [2] (1 uM Trifluoperazine A, no Wnt5a, replicate 1), -0.2581; in test [2] (1 uM Trifluoperazine A, no Wnt5a, replicate 2) it was -2.568. Besides, the “cystic organoids (sheet SF.5b)” value was -0.6142 in test [2] (1 uM Trifluoperazine A, no Wnt5a, replicate 3); -2.171 in test [2] (1 uM Trifluoperazine A, no Wnt5a, replicate 4); 12.7683 in test [2] (Wnt5a + 100 nM Trifluoperazine A, replicate 1); 12.5989 in test [2] (Wnt5a + 100 nM Trifluoperazine A, replicate 2); 11.621 in test [2] (Wnt5a + 100 nM Trifluoperazine A, replicate 3); 16.7645 in test [2] (Wnt5a + 100 nM Trifluoperazine A, replicate 4). Further, the “cystic organoids (sheet SF.5b)” value worked out at 9.106 in test [2] (Wnt5a + 1 uM Trifluoperazine A, replicate 1); 10.2184 in test [2] (Wnt5a + 1 uM Trifluoperazine A, replicate 2); 3.882 in test [2] (Wnt5a + 1 uM Trifluoperazine A, replicate 3); 10.8434 in test [2] (Wnt5a + 1 uM Trifluoperazine A, replicate 4).

Take Verteporfin: the “effect on cystic organoid phenotype” value in test [1] is listed as “strongly reduced the cystic organoid percentage”.

The values above are taken from article PMC9834240, “Senescent cells perturb intestinal stem cell differentiation through Ptk7 induced noncanonical Wnt and YAP signaling” (Nature Communications, 2023).
